Experimental data as given in patent US8003658B2, “Quinazoline derivatives for inhibiting cancer cell growth and method for the preparation thereof” (Hanmi Holdings Co., Ltd., priority 2004, dated 2011).
Where two headings read alike, the source gives them in different places.

How the values were obtained:
[1] = molecular target: EGFR (EGFR type 1 kinase) (Homo sapiens, UniProt P00533); test: Inhibition of EGFR enzyme (fluorescence polarization kinase assay)
Method: 10 μl of EGFR (EGFR type 1 kinase) was added to each well of a 96-well microplate.
SK-Br3 (ATCC: HTB-30) = test: Test of cancer cell growth inhibition (SRB), SK-Br3; conditions: read-out: IC50 SK-Br-3
SW-620 (ATCC: CCL-227) = test: Test of cancer cell growth inhibition (SRB), SW-620; conditions: Homo sapiens, SW-620, 72 h, read-out: IC50 SW-620
A431 (ATCC: CRL-1555) = test: Test of cancer cell growth inhibition (SRB), A431; conditions: read-out: IC50 A431

C=CC(=O)NCCC(=O)Nc1ccc2ncnc(Nc3ccc(OCc4cccc(F)c4)c(Cl)c3)c2c1 [Example 22, N-(2-{4-[3-chloro-4-(3-fluoro-benzyloxy)-phenylamino]-quinazolin-6-ylcarbamoyl}-ethyl)-acrylamide]
IC50 [1]: 3 nM | IC50 (SK-Br3 (ATCC: HTB-30); Homo sapiens, SK-BR-3, 72 h): 3 nM | IC50 (SW-620 (ATCC: CCL-227)): > 10000 nM | IC50 (A431 (ATCC: CRL-1555); Homo sapiens, A-431, 72 h): 58 nM

C=CC(=O)N[C@@H](CC)C(=O)Nc1cc2c(Nc3ccc(OCc4ccccn4)c(Cl)c3)ncnc2cc1OC [Example 205, (2S)-2-acryloylamino-N-{4-[3-chloro-4-(pyridin-2-ylmethoxy)-phenylamino]-7-methoxy-quinazolin-6-yl}-butyramide]
IC50 [1]: 2 nM | IC50 (SK-Br3 (ATCC: HTB-30); Homo sapiens, SK-BR-3, 72 h): 19 nM | IC50 (A431 (ATCC: CRL-1555); Homo sapiens, A-431, 72 h): 17 nM

C=CC(=O)N[C@H](C)C(=O)Nc1cc2c(Nc3ccc(OCc4ccccn4)c(Cl)c3)ncnc2cc1OCCOC [Example 208, (1R)—N-(1-{4-[3-chloro-4-(pyridin-2-ylmethoxy)-phenylamino]-7-(2-methoxy-ethoxy)-quinazolin-6-ylcarbamoyl}-ethyl)-acrylamide]
IC50 [1]: 2 nM | IC50 (SK-Br3 (ATCC: HTB-30); Homo sapiens, SK-BR-3, 72 h): 3 nM | IC50 (A431 (ATCC: CRL-1555); Homo sapiens, A-431, 72 h): 11 nM

C=CC(=O)NCC(=O)Nc1cc2c(Nc3ccc(OCc4cccc(F)c4)c(Cl)c3)ncnc2cc1OC [Example 211, N-({4-[3-chloro-4-(3-fluoro-benzyloxy)-phenylamino]-7-methoxy-quinazolin-6-ylcarbamoyl}-methyl)-acrylamide]
IC50 [1]: 2 nM | IC50 (SK-Br3 (ATCC: HTB-30); Homo sapiens, SK-BR-3, 72 h): 6 nM | IC50 (A431 (ATCC: CRL-1555); Homo sapiens, A-431, 72 h): 16 nM

C=CC(=O)NCC(=O)Nc1cc2c(Nc3ccc(OCc4cccc(F)c4)c(Cl)c3)ncnc2cc1OCCOC [Example 217, N-({4-[3-chloro-4-(3-fluoro-benzyloxy)-phenylamino]-7-(2-methoxyethoxy)-quinazolin-6-ylcarbamoyl}-methyl)-acrylamide]
IC50 [1]: 2 nM | IC50 (SK-Br3 (ATCC: HTB-30); Homo sapiens, SK-BR-3, 72 h): 3 nM | IC50 (A431 (ATCC: CRL-1555); Homo sapiens, A-431, 72 h): 14 nM

C=CC(=O)NCC(=O)Nc1cc2c(Nc3ccc(OCc4ccccn4)c(Cl)c3)ncnc2cc1OCCOC [Example 218, N-({4-[3-chloro-4-(pyridin-2-ylmethoxy)-phenylamino]-7-(2-methoxyethoxy)-quinazolin-6-ylcarbamoyl}-methyl)-acrylamide]
IC50 [1]: 2 nM | IC50 (SK-Br3 (ATCC: HTB-30); Homo sapiens, SK-BR-3, 72 h): 4 nM | IC50 (A431 (ATCC: CRL-1555); Homo sapiens, A-431, 72 h): 16 nM

C=CC(=O)N[C@@H](C)C(=O)Nc1cc2c(Nc3ccc(OCc4ccccn4)c(Cl)c3)ncnc2cc1OCCCN1CCOCC1 [Example 219, (1S)—N-(1-{4-[3-chloro-4-(pyridin-2-ylmethoxy)-phenylamino]-7-(3-morpholin-4-yl-propoxy)-quinazolin-6-ylcarbamoyl}-ethyl)-acrylamide]
IC50 [1]: 2 nM | IC50 (SK-Br3 (ATCC: HTB-30); Homo sapiens, SK-BR-3, 72 h): 7 nM | IC50 (A431 (ATCC: CRL-1555); Homo sapiens, A-431, 72 h): 17 nM

(1S)—N-(1-{4-[3-chloro-4-(pyridin-2-ylmethoxy)-phenylamino]-7-methoxy-quinazolin-6-ylcarbamoyl}-ethyl)-acrylamide [Example 216]
IC50 ([1]; read-out: IC50 EGFR, Poly (Glu, Tyr) 4:1 and ATP, 1 hour room temperature, FP readout): 2 nM | IC50 (SK-Br3 (ATCC: HTB-30); Erb-B2 overexpressed SK-Br3, 72 hours, SRB): 8 nM | IC50 (A431 (ATCC: CRL-1555); EGFR overexpressed A431, 72 hours, SRB): 13 nM
